tested on: Botrytis cinerea; test: M1 Activity against the grey mold Botrytis cinerea in the microtiterplate test (Botrci); format: cell-based; conditions: 31 ppm, 405 nm, 7 days after inoculation; compound-free control 100%

SMILES | growth (relative growth in % of the pathogen)
CCC(O)(Cn1cncn1)c1ccc(-c2ccccc2)cc1Cl (stereo not shown) [Compound I-13] | 0%
CC#CC(O)(Cn1cncn1)c1ccc(-c2ccccc2)cc1Cl (stereo not shown) [Compound I-10] | 0%
CC(O)(Cn1cncn1)c1ccc(-c2ccccc2)cc1Cl (stereo not shown) [Compound I-8] | 0%
CC(C)(C)C(O)(Cn1cncn1)c1ccc(-c2ccccc2)cc1Cl (stereo not shown) [Compound I-7] | 0%
CC(F)(F)C(O)(Cn1cncn1)c1ccc(-c2ccccc2)cc1Cl (stereo not shown) [Compound I-14] | 0%
C=CCCC(O)(Cn1cncn1)c1ccc(-c2ccccc2)cc1Cl (stereo not shown) [Compound I-9] | 0%
OC(Cn1cncn1)(c1ccc(-c2ccccc2)cc1Cl)C1CC1 (stereo not shown) [Compound I-1] | 0%

Reference: patent US20170107185A1, “SUBSTITUTED [1,2,4]TRIAZOLE AND IMIDAZOLE COMPOUNDS AS FUNGICIDES” (BASF SE, priority 2014, published 2017)
